Source: patent publication US10238621B2, “9,10-α,α-OH-taxane analogs and methods for production thereof” (priority 2003, dated 2019)

Legend:
Type in all cases: cell-based
[1] = test system: Squamous Cell Carcinoma FADU; assay: Inhibition of cell growth, Squamous Cell Carcinoma FADU (MDR −, tubulin wild type); conditions: concentration 0.05 ug/mL
[2] = test system: Neuroblastoma SK-N-AS; assay: Inhibition of cell growth, Neuroblastoma SK-N-AS (MDR −, tubulin wild type)
[3] = test system: Ovarian Carcinoma 1A9PTX10; assay: Inhibition of cell growth, Ovarian Carcinoma 1A9PTX10 (MDR +, tubulin mutant)
[4] = test system: Breast Cancer MCF-7 NCI-AR; assay: Inhibition of cell growth, Breast Cancer MCF-7 NCI-AR (MDR +, tubulin wild type); conditions: for Inhibition: MCF-7 NCI-AR
[5] = test system: MDR sensitive cancer cell lines; assay: Inhibition of cell growth against MDR sensitive cancer cell lines; conditions: result in words
[6] = Homo sapiens, MCF7, MCF-7 NCI-AR, concentration 0.5 ug/mL

**Q.** With `CC(=O)O[C@H]1C(=O)[C@@]2(C)[C@H]([C@H](OC(=O)c3ccccc3)[C@]3(O)C[C@H](OC(=O)[C@H](O)[C@@H](NC(=O)c4ccccc4)c4ccccc4)C(C)=C1C3(C)C)[C@]1(OC(C)=O)CO[C@@H]1C[C@@H]2O` [Paclitaxel, reference compound] as the compound, how does the Inhibition [1] read?
**A.** The Inhibition was 47%.

**Q.** And the Inhibition ([2]; concentration 0.1 ug/mL)?
**A.** Its Inhibition is 54%.

**Q.** What about the Inhibition ([3]; 1A9PTX10, concentration 5 ug/mL) of the same compound?
**A.** Its Inhibition is 55%.

**Q.** What about the Inhibition ([4]; concentration 40 ug/mL) of the same compound?
**A.** Its Inhibition is 55%.

**Q.** For `C=CC1O[C@H]2C[C@H]3OC[C@@]3(OC(C)=O)[C@H]3[C@H](OC(=O)c4ccccc4)[C@]4(O)C[C@H](OC(=O)[C@H](O)[C@@H](NC(=O)c5ccccc5)c5ccccc5)C(C)=C([C@H](OC(C)=O)[C@H](O1)[C@]23C)C4(C)C` (stereo partly drawn) [TPI 251], which inhibition at 0.25 µg/mL ([3]; Homo sapiens, 1A9/ptx-10, 1A9PTX10, concentration 0.25 ug/mL) is on record?
**A.** Its inhibition at 0.25 µg/mL is 93%.

**Q.** What about the inhibition at 0.5 µg/mL ([3]; Homo sapiens, 1A9/ptx-10, 1A9PTX10, concentration 0.5 ug/mL) of the same compound?
**A.** The inhibition at 0.5 µg/mL was 96%.

**Q.** And the inhibition at 0.5 µg/mL [4, 6]?
**A.** The inhibition at 0.5 µg/mL was 45%.

**Q.** And the inhibition at 1 µg/mL ([4]; Homo sapiens, MCF7, MCF-7 NCI-AR, concentration 1.0 ug/mL)?
**A.** The inhibition at 1 µg/mL was 65%.

**Q.** What about the inhibition at 2 µg/mL ([4]; Homo sapiens, MCF7, MCF-7 NCI-AR, concentration 2.0 ug/mL) of the same compound?
**A.** The inhibition at 2 µg/mL was 94%.

**Q.** What about the “inhibition of cell growth against MDR sensitive cancer cell lines” value [5] of the same compound?
**A.** The value was “excellent inhibition of cell growth”.

**Q.** Which Inhibition ([4]; concentration 0.5 ug/mL) does the source give for `C=CC1O[C@H]2C[C@H]3OC[C@@]3(OC(C)=O)[C@H]3[C@H](OC(=O)c4ccccc4)[C@]4(O)C[C@H](OC(=O)[C@H](O)[C@@H](NC(=O)c5ccccc5)c5ccccc5)C(C)=C([C@H](OC(C)=O)[C@H](O1)[C@]23C)C4(C)C` (stereo partly drawn) [TPI 285] here?
**A.** The Inhibition was 41%.

**Q.** What about the Inhibition ([4]; concentration 1.0 ug/mL) of the same compound?
**A.** Its Inhibition is 51%.

**Q.** And the Inhibition ([4]; concentration 2.0 ug/mL)?
**A.** Its Inhibition is 85%.

**Q.** And the “inhibition of cell growth against MDR sensitive cancer cell lines” value [5]?
**A.** The value was “excellent inhibition of cell growth”.

**Q.** Which results are given for `C=CC1O[C@H]2C[C@H]3OC[C@@]3(OC(C)=O)[C@H]3[C@H](OC(=O)c4ccccc4)[C@]4(O)C[C@H](OC(=O)[C@H](O)[C@H](CC(C)C)NC(=O)OC(C)(C)C)C(C)=C([C@H](OC(C)=O)[C@H](O1)[C@]23C)C4(C)C` (stereo partly drawn) [TPI 287, 7,9-acrolein acetal-10-α-acetyl-2′-R,S-hydroxy-3′-S-isobutyl-3′-N-t-butoxy carbonyl taxane]?
**A.** inhibition at 0.05 µg/mL ([1]; Homo sapiens): 56%; inhibition at 0.05 µg/mL ([2]; Homo sapiens, concentration 0.05 ug/mL): 58%; inhibition at 0.1 µg/mL ([3]; Homo sapiens, 1A9/ptx-10, 1A9PTX10, concentration 0.1 ug/mL): 51%; inhibition at 0.2 µg/mL ([3]; Homo sapiens, 1A9/ptx-10, 1A9PTX10, concentration 0.2 ug/mL): 85%; inhibition at 0.031 µg/mL ([4]; Homo sapiens, MCF7, MCF-7 NCI-AR, concentration 0.031 ug/mL): 13%; inhibition at 0.061 µg/mL ([4]; Homo sapiens, MCF7, MCF-7 NCI-AR, concentration 0.061 ug/mL): 22%; inhibition at 0.125 µg/mL ([4]; Homo sapiens, MCF7, MCF-7 NCI-AR, concentration 0.125 ug/mL): 37%; inhibition at 0.25 µg/mL ([4]; Homo sapiens, MCF7, MCF-7 NCI-AR, concentration 0.25 ug/mL): 47%; inhibition at 0.5 µg/mL [4, 6]: 80%; inhibition of cell growth against MDR sensitive cancer cell lines [5]: excellent inhibition of cell growth
